The NIST ThermoML archive (doi:10.1021/je9002306)

Experiments:
[1] = mn = molality of the nth substance listed, in mol/kg; conditions: 298.15 K, 101.3 kPa, Liquid, Vibrating tube method
[2] = cn = amount concentration of the nth substance listed, in mol/dm3; conditions: 298.15 K, 101.3 kPa, Liquid, Wayne-Kerr 6430B Auto Balance Bridge

CCCCCCCCn1cc[n+](C)c1.[Br-] [1-methyl-3-octylimidazolium bromide] + CN(C)C=O
Conditions	mass density [kg/m3]	molar conductivity [S·m2/mol]
[1], m1 = 0.0036	944.562	–
[1], m1 = 0.00742	944.824	–
[1], m1 = 0.01114	945.075	–
[1], m1 = 0.01485	945.316	–
[1], m1 = 0.01862	945.557	–
[1], m1 = 0.02243	945.792	–
[1], m1 = 0.02634	946.03	–
[1], m1 = 0.03009	946.26	–
[1], m1 = 0.03685	946.653	–
[1], m1 = 0.04079	946.877	–
[2], c1 = 0.0002813	–	0.007841
[2], c1 = 0.0003412	–	0.007808
[2], c1 = 0.0003997	–	0.007775
[2], c1 = 0.0004885	–	0.007732
[2], c1 = 0.0005571	–	0.0077
[2], c1 = 0.0006412	–	0.007663
[2], c1 = 0.0007099	–	0.007638
[2], c1 = 0.0007743	–	0.007612
[2], c1 = 0.000834	–	0.00759
[2], c1 = 0.0008925	–	0.007568

CCCCCCCCn1cc[n+](C)c1.[Br-] [1-methyl-3-octylimidazolium bromide] + C[S+](C)[O-]
Conditions	mass density [kg/m3]	molar conductivity [S·m2/mol]
[1], m1 = 0.003697	1095.43	–
[1], m1 = 0.007705	1095.54	–
[1], m1 = 0.01147	1095.63	–
[1], m1 = 0.01568	1095.74	–
[1], m1 = 0.01953	1095.84	–
[1], m1 = 0.02373	1095.95	–
[1], m1 = 0.02785	1096.05	–
[1], m1 = 0.03185	1096.15	–
[1], m1 = 0.03581	1096.25	–
[1], m1 = 0.03956	1096.34	–
[2], c1 = 0.0002816	–	0.003566
[2], c1 = 0.0003649	–	0.003551
[2], c1 = 0.0004495	–	0.00354
[2], c1 = 0.0005343	–	0.003529
[2], c1 = 0.000601	–	0.003521
[2], c1 = 0.000699	–	0.00351
[2], c1 = 0.0007785	–	0.003501
[2], c1 = 0.0008592	–	0.003493
[2], c1 = 0.0009426	–	0.003485

CCCCCCCCn1cc[n+](C)c1.[Br-] [1-methyl-3-octylimidazolium bromide] + OCCO
Conditions	mass density [kg/m3]	molar conductivity [S·m2/mol]
[1], m1 = 0.006765	1110.04	–
[1], m1 = 0.007869	1110.06	–
[1], m1 = 0.01325	1110.12	–
[1], m1 = 0.0167	1110.22	–
[1], m1 = 0.02074	1110.25	–
[1], m1 = 0.02364	1110.34	–
[1], m1 = 0.03075	1110.39	–
[1], m1 = 0.03492	1110.42	–
[1], m1 = 0.03798	1110.48	–
[2], c1 = 0.0003384	–	0.000678
[2], c1 = 0.0004129	–	0.000677
[2], c1 = 0.0004841	–	0.000675
[2], c1 = 0.0005608	–	0.000674
[2], c1 = 0.0006367	–	0.000673
[2], c1 = 0.0007095	–	0.000672
[2], c1 = 0.0007842	–	0.000671
[2], c1 = 0.0008592	–	0.00067
[2], c1 = 0.0009615	–	0.000669
[2], c1 = 0.001054	–	0.000668

CN(C)C=O [dimethylformamide] + CCCCCCCCCCCCn1cc[n+](C)c1.[Br-]
Conditions	mass density [kg/m3]
[1], m2 = 0	944.305

CN(C)C=O [dimethylformamide] + CCCCCCCCn1cc[n+](C)c1.[Br-]
Conditions	mass density [kg/m3]
[1], m2 = 0	944.305

CCCCCCCCCCCCn1cc[n+](C)c1.[Br-] [1-dodecyl-3-methylimidazolium bromide] + CN(C)C=O
Conditions	mass density [kg/m3]	molar conductivity [S·m2/mol]
[1], m1 = 0.003861	944.545	–
[1], m1 = 0.008055	944.798	–
[1], m1 = 0.0123	945.047	–
[1], m1 = 0.01627	945.277	–
[1], m1 = 0.02032	945.508	–
[1], m1 = 0.02446	945.745	–
[1], m1 = 0.02703	945.89	–
[1], m1 = 0.03337	946.237	–
[1], m1 = 0.03725	946.45	–
[1], m1 = 0.04099	946.651	–
[2], c1 = 0.0001357	–	0.007691
[2], c1 = 0.0001826	–	0.007656
[2], c1 = 0.0002263	–	0.007631
[2], c1 = 0.0002718	–	0.007605
[2], c1 = 0.0003169	–	0.007581
[2], c1 = 0.0003578	–	0.007564
[2], c1 = 0.0004043	–	0.007541
[2], c1 = 0.0004399	–	0.007527
[2], c1 = 0.0004725	–	0.00751
[2], c1 = 0.0005219	–	0.007494

C[S+](C)[O-] [dimethyl sulfoxide] + CCCCCCCCn1cc[n+](C)c1.[Br-]
Conditions	mass density [kg/m3]
[1], m2 = 0	1095.33

C[S+](C)[O-] [dimethyl sulfoxide] + CCCCCCCCCCn1cc[n+](C)c1.[Br-]
Conditions	mass density [kg/m3]
[1], m2 = 0	1095.33

CCCCCCCCCCn1cc[n+](C)c1.[Br-] [1-decyl-3-methylimidazolium bromide] + C[S+](C)[O-]
Conditions	mass density [kg/m3]	molar conductivity [S·m2/mol]
[1], m1 = 0.005147	1095.4	–
[1], m1 = 0.00868	1095.45	–
[1], m1 = 0.01336	1095.53	–
[1], m1 = 0.01682	1095.59	–
[1], m1 = 0.02087	1095.65	–
[1], m1 = 0.02779	1095.77	–
[1], m1 = 0.03347	1095.87	–
[1], m1 = 0.04096	1096	–
[1], m1 = 0.04462	1096.07	–
[1], m1 = 0.05299	1096.22	–
[2], c1 = 0.0002071	–	0.003508
[2], c1 = 0.0003447	–	0.003485
[2], c1 = 0.0004551	–	0.003472
[2], c1 = 0.000577	–	0.003459
[2], c1 = 0.0006934	–	0.003446
[2], c1 = 0.0008066	–	0.003433
[2], c1 = 0.0008974	–	0.003426
[2], c1 = 0.001043	–	0.003413
[2], c1 = 0.001234	–	0.003397

CN(C)C=O [dimethylformamide] + CCCCCCCCCCn1cc[n+](C)c1.[Br-]
Conditions	mass density [kg/m3]
[1], m2 = 0	944.305

CCCCCCCCCCn1cc[n+](C)c1.[Br-] [1-decyl-3-methylimidazolium bromide] + OCCO
Conditions	mass density [kg/m3]	molar conductivity [S·m2/mol]
[1], m1 = 0.005851	1109.99	–
[1], m1 = 0.0106	1110	–
[1], m1 = 0.01551	1110	–
[1], m1 = 0.01977	1110.01	–
[1], m1 = 0.02479	1110.01	–
[1], m1 = 0.02646	1110.02	–
[1], m1 = 0.03544	1110.02	–
[1], m1 = 0.03722	1110.02	–
[1], m1 = 0.04453	1110.03	–
[2], c1 = 0.0003546	–	0.000667
[2], c1 = 0.0004359	–	0.000666
[2], c1 = 0.0005147	–	0.000664
[2], c1 = 0.0005865	–	0.000663
[2], c1 = 0.0006739	–	0.000661
[2], c1 = 0.0007633	–	0.00066
[2], c1 = 0.0008415	–	0.000659
[2], c1 = 0.0009056	–	0.000658
[2], c1 = 0.0009847	–	0.000657
[2], c1 = 0.001065	–	0.000656

CCCCCCCCCCCCn1cc[n+](C)c1.[Br-] [1-dodecyl-3-methylimidazolium bromide] + OCCO
Conditions	mass density [kg/m3]	molar conductivity [S·m2/mol]
[1], m1 = 0.003873	1109.91	–
[1], m1 = 0.007663	1109.87	–
[1], m1 = 0.01013	1109.85	–
[1], m1 = 0.0133	1109.82	–
[1], m1 = 0.0168	1109.78	–
[1], m1 = 0.02023	1109.75	–
[1], m1 = 0.03123	1109.63	–
[1], m1 = 0.03429	1109.6	–
[2], c1 = 0.000348	–	0.000654
[2], c1 = 0.0004233	–	0.000653
[2], c1 = 0.0004995	–	0.000652
[2], c1 = 0.0005785	–	0.00065
[2], c1 = 0.0006521	–	0.000649
[2], c1 = 0.0007213	–	0.000648
[2], c1 = 0.0008076	–	0.000646
[2], c1 = 0.0008687	–	0.000645
[2], c1 = 0.0009337	–	0.000644
[2], c1 = 0.001012	–	0.000643

CCCCCCCCCCn1cc[n+](C)c1.[Br-] [1-decyl-3-methylimidazolium bromide] + CN(C)C=O
Conditions	mass density [kg/m3]	molar conductivity [S·m2/mol]
[1], m1 = 0.004548	944.601	–
[1], m1 = 0.009331	944.904	–
[1], m1 = 0.01416	945.206	–
[1], m1 = 0.01889	945.493	–
[1], m1 = 0.02351	945.774	–
[1], m1 = 0.02843	946.065	–
[1], m1 = 0.03329	946.353	–
[1], m1 = 0.03813	946.64	–
[1], m1 = 0.04346	946.942	–
[1], m1 = 0.04852	947.237	–
[2], c1 = 0.0001732	–	0.007794
[2], c1 = 0.0002484	–	0.007742
[2], c1 = 0.0003119	–	0.007708
[2], c1 = 0.0003859	–	0.007672
[2], c1 = 0.0004585	–	0.007636
[2], c1 = 0.0005275	–	0.007607
[2], c1 = 0.0005939	–	0.007575
[2], c1 = 0.0006636	–	0.007549
[2], c1 = 0.0007275	–	0.007523
[2], c1 = 0.0007761	–	0.007502

C[S+](C)[O-] [dimethyl sulfoxide] + CCCCCCCCCCCCn1cc[n+](C)c1.[Br-]
Conditions	mass density [kg/m3]
[1], m2 = 0	1095.35

CCCCCCCCCCCCn1cc[n+](C)c1.[Br-] [1-dodecyl-3-methylimidazolium bromide] + C[S+](C)[O-]
Conditions	mass density [kg/m3]	molar conductivity [S·m2/mol]
[1], m1 = 0.00268	1095.36	–
[1], m1 = 0.004967	1095.36	–
[1], m1 = 0.007868	1095.37	–
[1], m1 = 0.01038	1095.38	–
[1], m1 = 0.01304	1095.39	–
[1], m1 = 0.016	1095.41	–
[1], m1 = 0.01873	1095.42	–
[1], m1 = 0.02082	1095.43	–
[1], m1 = 0.02457	1095.44	–
[1], m1 = 0.02736	1095.46	–
[2], c1 = 0.0003026	–	0.003442
[2], c1 = 0.0003758	–	0.003429
[2], c1 = 0.0004555	–	0.003416
[2], c1 = 0.0005343	–	0.003406
[2], c1 = 0.0006078	–	0.003397
[2], c1 = 0.0006771	–	0.003389
[2], c1 = 0.0007464	–	0.003381
[2], c1 = 0.0008059	–	0.003374
[2], c1 = 0.0009021	–	0.003365
